Series [1] relates to BT-138. Put plainly: Cell viability, BT-138 (Table S1). The series is classed as cell-based. The following applies: BT-138, 24 h. As to the method:
1. Cell Growth Inhibition by Dasatinib, Si306 and Pro-Si306
GB cell lines BT138, T98G and A172 were treated with Si306 and pro-Si306 at concentrations ranging from 1 to 100 µM, or with DMSO as a control. Cell viability was evaluated 72 h after treatment for T98G and A172 cell lines and after 24 h for BT-138. In table S1 the IC50 values are reported.
Table S1. Sensitivity of glioblastoma multiforme (GBM) cells to Si306 and pro-Si306 expressed as IC50 […]
Figure S1. Rho 123 accumulation in U87-TxR cells treated with increasing concentrations of TQ (A), Dex-VER (B), Si306 (C) and pro-Si306 (D).
(1 picture or pasted object on this page, not shown here)

A short description of series [2]: Plasma pharmacokinetics of Si306 in mice. The series is classed as in vivo, BALB/C mice. The following applies: for AUC(0-t): read-out: AUC 0→24 h; for MRT inf: read-out: MRT 0→∞. An excerpt: Naive male BALB/C mice (weight 20 ± 2 g) were ordered from Charles River (Milan, Italy). All animals were pathogen free and approximately 4–6 weeks old when they arrived. The adaption period to the environment was not less than seven days. All the procedures used on animals in this study were approved by Institutional Animal Use and Care Committee at Università Cattolica del S. Cuore, Rome and Università degli Studi di Siena and authorized by the Italian Ministry of Health, according to Legislative Decree 116/92, which implemented the European Directive 86/609/EEC on laboratory animal protection in Italy. Methods for all the conducted experiments were performed in accordance with regulations, standards and guidelines of the Animal Use and Care Committee of Università Cattolica del S. Cuore, Rome and Università degli Studi di Siena.
Si306 was dissolved in a mixture of Tween80 (10% v/v), benzyl alcohol (1% v/v) and a 10 mM solution of citric acid. The compound was administered intravenously as a single dose of 25 mg/kg in 200 μL of volume. At several time points (0.08, 0.25, 0.5, 1, 2, 4, 8, 24 h), after drug administration, mice were treated i.p. with heparin (5000 U/kg) and sacrificed under CO2. Five animals were used for each time point. Blood, brain, liver and kidneys were collected for the following quantitative analysis. Approximately 500–600 μL of blood was collected from each animal and transferred to a tube containing 10 μL of heparin and mixed briefly.
For the oral PK studies, mice received a single dose of 50 mg/kg of Si306 (dissolved in the same vehicle used for i.v. studies) in 400 μL of final volume by gavage. At nine time-points (0.25, 0.5, 1, 1.5, 2, 3, 4, 8, 24 h) after administration, mice were sacrificed under CO2. Blood and organs were collected and analyzed by LC-MS. The pharmacokinetic parameters, including area under concentration-time curve (AUC), maximum plasma concentration (Cmax), half-time (t1/2), apparent volume of distribution (V), plasma clearance (CL) and mean residence time (MRT), were calculated by non-compartmental analysis using PKSolver software (ver. 1.0, Nanjing, China).
Blood samples were centrifuged at 5000 rpm for 20 min to separate the plasma fraction, which was subsequently collected in a test tube. Acetonitrile (1 mL, with Si34 as internal standard at the concentration of 5 μg/mL) was added to each sample to denature proteins. Samples were centrifuged at 5000 rpm for 20 min, and the supernatant was recovered, dried under vacuum, solubilized again in methanol (100 μL), and analyzed. Brain and the other organs were homogenized using a T10 basic ULTRA-TURRAX® homogenizer (Bioclass, Pistoia, Italy); in order to extract the compound from the tissue, acetonitrile internal standard solution was added, and the homogenate was centrifuged at 5000 rpm for 20 min. The supernatant was recovered, filtered and analyzed by LC-MS. The quantification of each compound was performed by reference to the appropriate calibration curve. Representative LC-MS chromatograms for Si306 and for Si34 are reported in Figure S2 and Figure S3 respectively.

Series [3] concerns the target P-gp (Homo sapiens, UniProt P08183). Put plainly: Rho 123 accumulation assay (P-gp inhibition) in U87-TxR cells. The following applies: 30 min.
Method: At the end of the accumulation period, the cells were pelleted by centrifugation, washed with PBS and placed in cold PBS. The samples were kept on ice in a dark setting until the analysis on CyFlow Space Partec flow-cytometer (Sysmex Partec GmbH, Germany). […] A minimum of 10,000 events was assayed for each sample and the obtained results were analyzed using Summit Dako Software (ver. 4.3, Fort Collins, CO, USA).
Setting [4] is: male, BALB/C, mouse, iv, 25 mg/kg, mice.
Where [5] appears, read: male, BALB/C, mouse, po, 50 mg/kg, mice.

“Also recorded” adds a separate entry of the source. Read-outs that look alike come from different tables or passages of the source.

Consider one molecule from publication PMC6628362, “A New Strategy for Glioblastoma Treatment: In Vitro and In Vivo Preclinical Characterization of Si306, a Pyrazolo[3,4-d]Pyrimidine Dual Src/P-Glycoprotein Inhibitor” (Cancers, 2019).

Sequence of P-gp (P08183 whole entry): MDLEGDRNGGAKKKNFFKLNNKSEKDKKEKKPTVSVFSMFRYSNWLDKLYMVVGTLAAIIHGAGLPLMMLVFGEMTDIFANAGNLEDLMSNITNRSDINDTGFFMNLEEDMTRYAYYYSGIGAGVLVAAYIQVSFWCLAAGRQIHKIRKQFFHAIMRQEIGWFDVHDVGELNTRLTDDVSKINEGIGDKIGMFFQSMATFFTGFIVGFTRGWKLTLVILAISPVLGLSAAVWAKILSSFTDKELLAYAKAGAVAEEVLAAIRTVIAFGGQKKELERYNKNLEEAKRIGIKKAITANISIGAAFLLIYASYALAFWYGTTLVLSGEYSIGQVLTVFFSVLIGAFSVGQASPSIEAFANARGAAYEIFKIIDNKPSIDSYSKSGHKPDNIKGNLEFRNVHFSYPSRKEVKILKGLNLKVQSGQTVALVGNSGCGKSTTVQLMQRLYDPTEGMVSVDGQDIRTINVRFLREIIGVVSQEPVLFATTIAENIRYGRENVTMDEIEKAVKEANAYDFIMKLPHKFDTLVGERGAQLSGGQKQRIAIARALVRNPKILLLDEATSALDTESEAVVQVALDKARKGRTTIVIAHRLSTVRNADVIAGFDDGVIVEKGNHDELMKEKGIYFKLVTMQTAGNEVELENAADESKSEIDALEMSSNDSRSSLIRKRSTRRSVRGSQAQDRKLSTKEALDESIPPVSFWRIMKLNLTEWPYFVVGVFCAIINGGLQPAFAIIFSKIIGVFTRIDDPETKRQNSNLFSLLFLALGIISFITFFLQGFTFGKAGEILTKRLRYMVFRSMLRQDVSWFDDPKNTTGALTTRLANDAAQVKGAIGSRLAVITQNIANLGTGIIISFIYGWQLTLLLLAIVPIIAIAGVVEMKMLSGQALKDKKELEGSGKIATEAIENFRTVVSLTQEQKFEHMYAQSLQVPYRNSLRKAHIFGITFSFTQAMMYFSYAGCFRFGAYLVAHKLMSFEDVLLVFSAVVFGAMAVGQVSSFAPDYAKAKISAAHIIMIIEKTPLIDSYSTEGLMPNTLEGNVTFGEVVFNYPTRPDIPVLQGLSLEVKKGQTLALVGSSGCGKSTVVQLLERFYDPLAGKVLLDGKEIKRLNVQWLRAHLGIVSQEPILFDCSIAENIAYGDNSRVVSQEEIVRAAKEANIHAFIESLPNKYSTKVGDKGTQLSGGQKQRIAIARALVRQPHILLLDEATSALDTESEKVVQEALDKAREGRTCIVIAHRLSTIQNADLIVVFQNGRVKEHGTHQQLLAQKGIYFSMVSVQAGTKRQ

`ClC(Cn1ncc2c(Nc3cccc(Br)c3)nc(SCCN3CCOCC3)nc21)c1ccccc1` (stereo not shown) [Si306] gave an IC50 in series [1] of 72.6 ± 6.21 µM. Moreover, the “Cmax for i.v. treatment, times higher than p.o.” value in series [2] (i.v. 25 mg/kg vs p.o. 50 mg/kg) is 8.5 times. Besides, in series [2] (i.v., 25 mg/kg, mice), the “CL z/F” value was determined as 1.10 L/h/kg and the “V z/F” value turned out to be 8.17 L/kg. The Tmax in series [2] (male, BALB/C, mouse, iv, 25 mg/kg, i.v., 25 mg/kg, mice, read-out: Tmax) was determined as 4.8 min. Moreover, in series [2] (male, BALB/C, mouse, iv, 25 mg/kg, i.v., 25 mg/kg, mice, read-out: time of peak plasma concentration (converted)), the Tmax was 5 min. In series [2] (setting [4]), the AUC(0-inf) is 22800 ng·h/mL, the Cmax stood at 25400 ng/mL, the half-life is 309 min and the AUC(0-t) came out at 22300 ng·h/mL. For the same molecule, the MRT inf in series [2] (setting [4]) stood at 3.78 h. This molecule came in with a bioavailability in series [2] (male, BALB/C, mouse, oral, 50 mg/kg, mice, p.o. 50 mg/kg vs i.v. 25 mg/kg, equation (1)) of 33.3%. In series [2] (setting [5]), the AUC(0-inf) was 15200 ng·h/mL, the peak level (Cmax) was 2970 ng/mL, the half-life was 358 min and the AUC(0-t) is 14500 ng·h/mL. Moreover, the MRT inf in series [2] (setting [5]) is 5.7 h. In addition, the CL/F in series [2] (male, BALB/C, mouse, po, 50 mg/kg, mice, read-out: CL z/F (converted)) is 54.8 mL/min/kg. For the same molecule, in series [2] (male, BALB/C, mouse, po, 50 mg/kg, mice, read-out: V z/F), the Vd/F is 28.3 L/kg. For the same molecule, in series [2] (male, BALB/C, mouse, po, 50 mg/kg, p.o., 50 mg/kg, mice, read-out: Tmax), the Tmax stood at 90 min. In addition, the “P-gp activity (Rho 123 intracellular accumulation)” value in series [3] (5 µM) is listed as “considerably inhibited P-gp activity; also recorded: significant suppression of P-gp activity”. For the same molecule, in series [3] (IC50 of P-gp inhibition, Rho 123 accumulation), the IC50 came out at 8.5 µM.

As usually defined, the IC50 is the point on the concentration scale where inhibition reaches its midpoint. As usually defined, the AUC(0-inf) is total exposure, with the tail of the curve extrapolated. Usually Cmax stands for the highest concentration seen after dosing. The half-life is how long it takes for the measured level to halve. A high value points to slow loss. For orientation: bioavailability means dose-corrected exposure relative to a reference, in per cent. A higher bioavailability goes with good availability.
